Read-outs that look alike come from different tables or passages of the source.
Tests used:
jejunum = assay: Spasmolytic activity in vivo: spontaneous contraction of the jejunum; design: species or system Mongrel dogs; details: dogs
Method: (§1) Spasmolytic activity in vivo
(§2) Mongrel dogs were anesthetized with s.c. injection of morphine chloride (10 mg/kg) and urethane (1.5 g/kg). The abdomen was incised along the midline, and a ballon filled with water was introduced into the gastric antrum or jejunum. The spontaneous contraction of the gastric antrum and jejunum were continuously recorded through the balloon connected to a pressure transducer. The test drugs were given intravenously. The effect of the test drug is expressed as inhibitory percentage compared to the contractile magnitude obtained before the test drug. The blood pressure was also monitored with a pressure transducer through a cannula inserted in the femoral artery.

[1] = Blood pressure monitored in spasmolytic activity test (cannula in femoral artery); assay type: in vivo, Mongrel dogs; details: dogs
Method: as §1, §2

stress ulcer = assay: Test B: Inhibition on stress ulcer; assay type: in vivo, male Sprague-Dawley rats; details: for ED50: Rattus norvegicus, read-out: ED50 (Test B, stress ulcer)
Method: Inhibition on stress ulcer
Five male Sprague-Dawley rats, aged 7 weeks and weighing about 200 g were used per group for the study on stress ulcer after the fast for 24 hours. Each animal was immobilized in a restrain cage and immersed to a level of the xiphoid in a water bath kept 22° C. The test compound suspended in 0.1% methylcellulose solution was administered orally (5 ml/kg) just before the immobilization. Seven hours later, the animals were sacrificed and their stomachs were removed. The stomach was then fixed with 2% formalin. The area of ulcers was measured for each animal. The mean area (mm^2) in the test animals was compared with that in the control animals.

gastric antrum = assay: Spasmolytic activity in vivo: spontaneous contraction of the gastric antrum; design: species or system Mongrel dogs; details: dogs
Method: as §1, §2

gastric secretion = assay: Test A: Gastric secretion in Heidenhain pouch dogs (tetragastrin-stimulated total acid output); assay type: in vivo, Beagle dogs; details: Canis lupus familiaris, intravenous, tetragastrin 10 μg/kg/hr
Method: Gastric secretion in Heidenhain pouch dogs
Beagle dogs, weighing about 8-13 kg, were used for the study on gastric secretion. The animals were surgically provided with a vagally denervated Heidenhain pouch. One month or more later, the dogs were fasted overnight. Gastric secretion was stimulated by an intravenous infusion of tetragastrin (10 μg/kg/hr). Gastric samples were collected at 15 min intervals. After its volume was almost constant, test compound suspended in 0.1% methyl cellulose solution was injected intravenously (0.2 ml/kg). Acid concentration was determined by titrating an aliquot to pH 7.0 with 0.1N sodium hydroxide solution using automatic titration (Hiranuma RAT-11 Type). Total acid output was calculated by multiplying total volume of gastric samples by acid concentration, and percentage change of total acid output was calculated by comparing with predosing value of test compound.

ethanol ulcer = assay: Test C: Inhibition on ethanol ulcer; assay type: in vivo, male Sprague-Dawley rats; details: Rattus norvegicus, 0.5 h; oral; rats; absolute ethanol 5 ml/kg 30 minutes after dosing
Method: Inhibition on ethanol ulcer
Five male Sprague-Dawley rats, aged 7 weeks and weighing about 200 g, were used per group for the study on ethanol ulcer after the fast for 24 hours.
Test compound was suspended in 0.1% methylcellulose aqueous solution, and the suspension (5 ml/kg) was orally given to each rat.
The control group was given a vehicle, i.e. 0.1% methylcellulose aqueous solution (5 ml/kg), alone in the same way.
Absolute ethanol (5 ml/kg) was orally administered 30 minutes after dosing with test compound, and one hour later, the rats were sacrificed and their stomachs were removed. The area of ulcers of each rat was measured. The mean area (mm^2) in the medicated group was compared with that in the control group.

[2] = British Pat. No. 666,778; cited from earlier work
[3] = oral, rats, restraint and water immersion 22° C., 7 hours

CC(C)N(CCC(C(N)=O)(c1ccccc1)c1ccccn1)C(C)C (stereo not drawn) [Disopyramide phosphate, α-phenyl-α-(2-pyridyl)-4-(N,N-diisopropylamino)butyramide]
Duration (jejunum) (jejunum; 100 μg/Kg intravenous): 0 min | Inh. (jejunum) (jejunum; 100 μg/Kg intravenous): 4% | Duration (jejunum) (jejunum; 1000 μg/Kg intravenous): > 60 min | Inh. (jejunum) (jejunum; 1000 μg/Kg intravenous): 85% | Blood pressure change (gastric antrum) ([1]; 100 μg/Kg intravenous): +3% | Blood pressure change (gastric antrum) ([1]; 1000 μg/Kg intravenous): +5% | Blood pressure change (jejunum) ([1]; 100 μg/Kg intravenous): +1% | Blood pressure change (jejunum) ([1]; 1000 μg/Kg intravenous): +14% | ED50 (Test B, stress ulcer) (stress ulcer; [3]): No Effect | Duration (gastric antrum) (gastric antrum; 100 μg/Kg intravenous): 10 min | Inh. (gastric antrum) (gastric antrum; 100 μg/Kg intravenous): 46% | Duration (gastric antrum) (gastric antrum; 1000 μg/Kg intravenous): 60 min | Inh. (gastric antrum) (gastric antrum; 1000 μg/Kg intravenous): 88%

CC(CC(C(N)=O)(c1ccccc1)c1ccccn1)N(C)C (centres unmarked) [Example 3, 4-(N,N-dimethylamino)-2-phenyl-2-(2-pyridyl)-valeramide]
Duration (jejunum) (jejunum; 10 μg/Kg intravenous): 30 min | Inh. (jejunum) (jejunum; 10 μg/Kg intravenous): 70% | Duration (jejunum) (jejunum; 100 μg/Kg intravenous): > 60 min | Inh. (jejunum) (jejunum; 100 μg/Kg intravenous): 93% | ED50 (gastric secretion): 0.27 mg/kg | ED50 (ethanol ulcer): 6.8 mg/kg | Blood pressure change (gastric antrum) ([1]; 10 μg/Kg intravenous): -3% | Blood pressure change (gastric antrum) ([1]; 100 μg/Kg intravenous): -4% | Blood pressure change (jejunum) ([1]; 10 μg/Kg intravenous): -3% | Blood pressure change (jejunum) ([1]; 100 μg/Kg intravenous): -7% | ED50 (stress ulcer; po, 7 h): 2.7 mg/kg | Duration (gastric antrum) (gastric antrum; 10 μg/Kg intravenous): 60 min | Inh. (gastric antrum) (gastric antrum; 10 μg/Kg intravenous): 52% | Duration (gastric antrum) (gastric antrum; 100 μg/Kg intravenous): 90 min | Inh. (gastric antrum) (gastric antrum; 100 μg/Kg intravenous): 95%

CN1CCN(CC(=O)N2c3ccccc3C(=O)Nc3cccnc32)CC1 [Gastrozepine]
ED50 (gastric secretion): 0.03 mg/kg | ED50 (ethanol ulcer): 14.4 mg/kg | ED50 (stress ulcer; [3]): 36 mg/kg

COC1CC(=C(c2cccs2)c2cccs2)C[N+](C)(C)C1 (centres unmarked) [Timepidium Bromide]
Duration (jejunum) (jejunum; 10 μg/Kg intravenous): 30 min | Inh. (jejunum) (jejunum; 10 μg/Kg intravenous): 59% | Duration (jejunum) (jejunum; 100 μg/Kg intravenous): > 60 min | Inh. (jejunum) (jejunum; 100 μg/Kg intravenous): 91% | Blood pressure change (gastric antrum) ([1]; 10 μg/Kg intravenous): +4% | Blood pressure change (gastric antrum) ([1]; 100 μg/Kg intravenous): -19% | Blood pressure change (jejunum) ([1]; 10 μg/Kg intravenous): -3% | Blood pressure change (jejunum) ([1]; 100 μg/Kg intravenous): -24% | Duration (gastric antrum) (gastric antrum; 10 μg/Kg intravenous): 10 min | Inh. (gastric antrum) (gastric antrum; 10 μg/Kg intravenous): 55% | Duration (gastric antrum) (gastric antrum; 100 μg/Kg intravenous): 30 min | Inh. (gastric antrum) (gastric antrum; 100 μg/Kg intravenous): 92%

CC(CN(C)C)C(C#N)(c1ccccc1)c1ccccn1 (stereo not drawn) [α-phenyl-α-(2-pyridyl)-4-(N,N-dimethylamino)-3-methylbutyronitrile]
antihistaminic activity [2]: possesses antihistaminic activity

From US4564621A, “α-Aryl-α-pyridylalkanoic acid derivatives, process for preparation thereof and pharmaceutical composition comprising the same” (Fujisawa Pharmaceutical Co., Ltd., priority 1982, dated 1986)
